# Target: T1, human PAH with the R408W mutation (A375 R408W cells) (Homo sapiens, UniProt P00439, R408W)
# T1 construct: expressed in transfected cells
# T1 sequence (P00439 1-452 R408W): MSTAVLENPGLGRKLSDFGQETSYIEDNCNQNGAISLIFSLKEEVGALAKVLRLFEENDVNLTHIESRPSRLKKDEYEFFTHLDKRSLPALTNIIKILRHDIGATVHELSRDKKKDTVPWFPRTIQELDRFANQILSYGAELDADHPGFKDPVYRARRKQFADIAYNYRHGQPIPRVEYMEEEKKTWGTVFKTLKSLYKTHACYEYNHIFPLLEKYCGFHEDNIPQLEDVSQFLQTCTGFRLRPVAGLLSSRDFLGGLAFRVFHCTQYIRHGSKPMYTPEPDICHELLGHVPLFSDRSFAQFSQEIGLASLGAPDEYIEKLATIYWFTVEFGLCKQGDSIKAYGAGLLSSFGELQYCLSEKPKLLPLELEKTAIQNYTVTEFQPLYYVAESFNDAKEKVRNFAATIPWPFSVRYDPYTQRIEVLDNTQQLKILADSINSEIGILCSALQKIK
# Experiment: Cell Based Phenylalanine Flux Assay
# Conditions: A375 R408W cells; 24 hrs with compound, then 20 μM sepiapterin and 800 μM 13C9,15N-Phenylalanine for 4 hours; 13C-Tyrosine by LC-MS; average where tested multiple times
# In short: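 A375 cells stably expressing lentiviral human PAH R408W were treated with compounds (10-point 2-fold dilutions, 0.5% DMSO, duplicate) for 24 h at 37 °C. Then 20 μM sepiapterin and 800 μM 13C9,15N-Phe were added for 4 h; media 13C-Tyr was measured by LC-MS to give AC50.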
row,Structure (SMILES),AC50
1,"COc1cccc2oc([C@@H]3c4nc[nH]c4CCN3C(=O)c3nc(C(F)F)nn3C)nc12 [Example 601, (S)-(3-(difluoromethyl)-1-methyl-1H-1,2,4-triazol-5-yl)(4-(4-methoxybenzo[d]oxazol-2-yl)-6,7-dihydro-1H-imidazo[4,5-c]pyridin-5(4H)-yl)methanone]",0.5 to 1 µM
2,"Cc1ccc2c(C(=O)N3CCc4[nH]cnc4[C@H]3c3nc4c(F)cccc4o3)cnn2c1 [Example 537, (S)-(4-(4-fluorobenzo[d]oxazol-2-yl)-6,7-dihydro-1H-imidazo[4,5-c]pyridin-5(4H)-yl)(6-methylpyrazolo[1,5-a]pyridin-3-yl)methanone]",≤ 0.5 µM
3,"Cn1cnc(-c2nc(C(F)F)c(C(=O)N3CCc4[nH]cnc4[C@@H]3c3nc4ccccc4o3)o2)c1 [Example 785, (R)-(4-(benzo[d]oxazol-2-yl)-6,7-dihydro-1H-imidazo[4,5-c]pyridin-5(4H)-yl)(4-(difluoromethyl)-2-(1-methyl-1H-imidazol-4-yl)oxazol-5-yl)methanone]",≥ 5 µM
4,"CC1CN(C(=O)c2ocnc2C(F)F)[C@H](c2nc3cccc(F)c3o2)c2nc[nH]c21 (single isomer, unassigned) [Example 803]",≤ 0.5 µM
5,"Cc1ccc2nc([C@@H]3c4nc[nH]c4CCN3C(=O)c3nnc(-c4ccccn4)o3)oc2c1 [Example 101, (S)-(4-(6-methylbenzo[d]oxazol-2-yl)-6,7-dihydro-1H-imidazo[4,5-c]pyridin-5(4H)-yl)(5-(pyridin-2-yl)-1,3,4-oxadiazol-2-yl)methanone]",0.5 to 1 µM
6,"O=C(CCc1nccs1)N1CCc2[nH]cnc2[C@H]1c1nc2cccc(F)c2o1 [Example 385, 1-[(4S)-4-(7-fluoro-1,3-benzoxazol-2-yl)-1,4,6,7-tetrahydroimidazo[4,5-c]pyridin-5-yl]-3-thiazol-2-yl-propan-1-one]",≤ 0.5 µM
7,"COc1ccc2oc([C@@H]3c4nc[nH]c4CCN3C(=O)c3nnc(-c4cnn(C)c4)o3)nc2c1 [Example 553, (S)-(4-(5-methoxybenzo[d]oxazol-2-yl)-6,7-dihydro-1H-imidazo[4,5-c]pyridin-5(4H)-yl)(5-(1-methyl-1H-pyrazol-4-yl)-1,3,4-oxadiazol-2-yl)methanone]",0.5 to 1 µM
8,"Cn1nccc1C(=O)N1CCc2[nH]cnc2[C@H]1c1nc2ccccc2o1 [Example 711, (S)-(4-(benzo[d]oxazol-2-yl)-6,7-dihydro-1H-imidazo[4,5-c]pyridin-5(4H)-yl)(1-methyl-1H-pyrazol-5-yl)methanone]",1 to 5 µM
9,"CC(C)(C)c1nc(C(F)F)c(C(=O)N2CCc3[nH]cnc3[C@H]2c2nc3cc(F)ccc3o2)o1 [Example 753, (S)-(2-(tert-butyl)-4-(difluoromethyl)oxazol-5-yl)(4-(5-fluorobenzo[d]oxazol-2-yl)-6,7-dihydro-1H-imidazo[4,5-c]pyridin-5(4H)-yl)methanone]",≤ 0.5 µM
10,"COc1cccc2oc([C@H]3c4nc[nH]c4CCN3C(=O)c3cnco3)nc12 [Example 622, (R)-(4-(4-methoxybenzo[d]oxazol-2-yl)-6,7-dihydro-1H-imidazo[4,5-c]pyridin-5(4H)-yl)(oxazol-5-yl)methanone]",1 to 5 µM
11,"Cc1ncoc1C(=O)N1CCc2[nH]cnc2[C@H]1c1nc2ccc(F)cc2o1 [Example 597, (S)-(4-(6-fluorobenzo[d]oxazol-2-yl)-6,7-dihydro-1H-imidazo[4,5-c]pyridin-5(4H)-yl)(4-methyloxazol-5-yl)methanone]",≤ 0.5 µM
12,"O=C(c1oc(C2(O)CCC2)nc1C(F)F)N1CCc2[nH]cnc2[C@H]1c1nc2cc(F)ccc2o1 [Example 689, (S)-(4-(difluoromethyl)-2-(1-hydroxycyclobutyl)oxazol-5-yl)(4-(5-fluorobenzo[d]oxazol-2-yl)-6,7-dihydro-1H-imidazo[4,5-c]pyridin-5(4H)-yl)methanone]",≤ 0.5 µM
13,"O=C(c1nnc(-c2ccccn2)o1)N1CCc2[nH]cnc2[C@H]1c1nc2c(F)c(F)ccc2o1 [Example 629, (S)-(4-(4,5-difluorobenzo[d]oxazol-2-yl)-6,7-dihydro-1H-imidazo[4,5-c]pyridin-5(4H)-yl)(5-(pyridin-2-yl)-1,3,4-oxadiazol-2-yl)methanone]",0.5 to 1 µM
14,"CC(C)(O)c1nc(C(F)F)c(C(=O)N2CCc3[nH]cnc3[C@@H]2c2nc3cccc(Br)c3o2)o1 [Example 459, (R)-(4-(7-bromobenzo[d]oxazol-2-yl)-6,7-dihydro-1H-imidazo[4,5-c]pyridin-5(4H)-yl)(4-(difluoromethyl)-2-(2-hydroxypropan-2-yl)oxazol-5-yl)methanone]",≤ 0.5 µM
15,"O=C(c1ocnc1C(F)F)N1CCc2[nH]cnc2[C@H]1c1nc2ccccc2o1 [Example 467, (S)-(4-(benzo[d]oxazol-2-yl)-6,7-dihydro-1H-imidazo[4,5-c]pyridin-5(4H)-yl)(4-(difluoromethyl)oxazol-5-yl)methanone]",≤ 0.5 µM
16,"CC(F)(F)c1ncoc1C(=O)N1CCc2[nH]cnc2[C@@H]1c1nc2cc(F)ccc2o1 [Example 154, (R)-(4-(1,1-difluoroethyl)oxazol-5-yl)(4-(5-fluorobenzo[d]oxazol-2-yl)-6,7-dihydro-1H-imidazo[4,5-c]pyridin-5(4H)-yl)methanone]",1 to 5 µM
17,Cc1cccc2nc([C@H]3c4nc[nH]c4CCN3C(=O)c3cc(C(F)F)nn3C)oc12 [Example 736],1 to 5 µM

# Other lines, results leading:
row,AC50,Structure (SMILES)
1,1 to 5 µM,"Cc1cccc2nc([C@H]3c4nc[nH]c4CCN3C(=O)c3nnc(-c4cnn(C(F)F)c4)o3)oc12 [Example 871, (R)-(5-(1-(difluoromethyl)-1H-pyrazol-4-yl)-1,3,4-oxadiazol-2-yl)(4-(7-methylbenzo[d]oxazol-2-yl)-6,7-dihydro-1H-imidazo[4,5-c]pyridin-5(4H)-yl)methanone]"
2,1 to 5 µM,"Cc1cccc2nc([C@H]3c4nc[nH]c4CCN3C(=O)c3nc(C(F)(F)F)nn3C)oc12 [Example 686, (R)-(1-methyl-3-(trifluoromethyl)-1H-1,2,4-triazol-5-yl)(4-(7-methylbenzo[d]oxazol-2-yl)-6,7-dihydro-1H-imidazo[4,5-c]pyridin-5(4H)-yl)methanone]"
3,≤ 0.5 µM,"O=C(c1ccnn1CC(F)F)N1CCc2[nH]cnc2[C@@H]1c1nc2c(F)cccc2o1 [Example 849, (R)-(1-(2,2-difluoroethyl)-1H-pyrazol-5-yl)(4-(4-fluorobenzo[d]oxazol-2-yl)-6,7-dihydro-1H-imidazo[4,5-c]pyridin-5(4H)-yl)methanone]"
4,0.5 to 1 µM,"CN1CCN(c2ccc3c(C(=O)N4CCc5[nH]cnc5[C@H]4c4nc5cc(F)ccc5o4)cnn3c2)CC1(C)C [Example 139, (S)-(4-(5-fluorobenzo[d]oxazol-2-yl)-6,7-dihydro-1H-imidazo[4,5-c]pyridin-5(4H)-yl)(6-(3,3,4-trimethylpiperazin-1-yl)pyrazolo[1,5-a]pyridin-3-yl)methanone]"
5,0.5 to 1 µM,"CC(C)(O)c1ncc(C(=O)N2CCc3[nH]cnc3[C@H]2c2nc3cccc(F)c3o2)o1 [Example 713, (S)-(4-(7-fluorobenzo[d]oxazol-2-yl)-6,7-dihydro-1H-imidazo[4,5-c]pyridin-5(4H)-yl)(2-(2-hydroxypropan-2-yl)oxazol-5-yl)methanone]"
6,0.5 to 1 µM,"O=C([C@@H]1CC1(F)F)N1CCc2[nH]cnc2[C@H]1c1nc2cc(F)ccc2o1 [Example 61, ((S)-2,2-difluorocyclopropyl)((S)-4-(5-fluorobenzo[d]oxazol-2-yl)-6,7-dihydro-1H-imidazo[4,5-c]pyridin-5(4H)-yl)methanone]"
7,≤ 0.5 µM,"Cc1c(F)ccc2oc([C@@H]3c4nc[nH]c4CCN3C(=O)c3ocnc3C(F)F)nc12 [Example 722, (S)-(4-(difluoromethyl)oxazol-5-yl)(4-(5-fluoro-4-methylbenzo[d]oxazol-2-yl)-6,7-dihydro-1H-imidazo[4,5-c]pyridin-5(4H)-yl)methanone]"
8,0.5 to 1 µM,"O=C(c1oc(-c2ccncc2)nc1C(F)F)N1CCc2[nH]cnc2[C@@H]1c1nc2cc(F)ccc2o1 [Example 422, (R)-(4-(difluoromethyl)-2-(pyridin-4-yl)oxazol-5-yl)(4-(5-fluorobenzo[d]oxazol-2-yl)-6,7-dihydro-1H-imidazo[4,5-c]pyridin-5(4H)-yl)methanone]"

# Same assay, conditions: A375 cells expressing R408W PAH; 24 hrs with compound, then 20 μM sepiapterin and 800 μM 13C9,15N-Phenylalanine for 4 hours; 13C-Tyrosine by LC-MS; average where tested multiple times
row,Structure (SMILES),AC50
1,O=C(c1ccn(-c2ccccn2)n1)N1CCc2[nH]cnc2C1c1nc2ccccc2o1 (stereo not shown),≥ 5 µM
2,Cc1nc(CN(C)C)oc1C(=O)N1CCc2[nH]cnc2C1c1nc2cc(F)ccc2o1 (stereo not shown),1 to 5 µM
3,O=C(c1cnn2cc(N3CCC4(CC3)CC4)ccc12)N1CCc2[nH]cnc2C1c1nc2cc(F)ccc2o1 (stereo not shown),1 to 5 µM
4,O=C(c1cnco1)N1CCc2[nH]cnc2C1c1nc2ccc(Br)cc2o1 (stereo not shown),≥ 5 µM
5,Cn1nc(C(F)(F)F)nc1C(=O)N1CCc2[nH]cnc2C1c1nc2ccc(F)cc2o1 (stereo not shown),≥ 5 µM

# More lines, now with the values ahead:
row,AC50,Structure (SMILES)
1,1 to 5 µM,Cc1nc(C(=O)N2CCc3[nH]cnc3C2c2nc3c(F)ccc(F)c3o2)n(C)n1 (stereo not shown)
2,≥ 5 µM,Cn1nc(C(C)(C)C)nc1C(=O)N1CCc2[nH]cnc2C1c1nc2ccccc2o1 (stereo not shown)
3,≥ 5 µM,COC(C)(C)c1nc(C)c(C(=O)N2CCc3[nH]cnc3C2c2nc3cc(F)ccc3o2)o1 (stereo not shown)
4,≥ 5 µM,"O=C(C1CC1)N1CCc2[nH]cnc2[C@@H]1c1nc2cc(F)ccc2o1 (single isomer, unassigned)"
